The source of these data is patent US5081149A, “Antihepatopathic method” (Senju Pharmaceutical Co., Ltd., priority 1989, dated 1992).

Assay [1] concerns acetaminophen-induced hepatopathy. Put plainly: Effects of DCE-GS on acetaminophen-induced hepatopathy in rats. The assay is classed as in vivo, SD-strain male rats. As to conditions: for LDH (lactate dehydrogenase) / s-GOT / s-GPT / s-TG (serum triglyceride): 1 h before acetaminophen 300 mg/kg i.p., blood at 24 h, mean ± standard error (n = 6 to 8). The protocol: After 24 hours of fasting, SD-strain male rats weighing 180 g were orally given 200, 400 or 800 mg/kg of S-(α, β-dicarboxyethyl)glutathione (hereinafter referred to as "DCE-GS" for short). A control group was given physiological saline. An hour later, 300 mg/kg acetaminophen was intraperitoneally administered to each rat for causing hepatopathy. Twenty-four hours after acetaminophen administration,blood samples were collected from the rats under pentobarbital anesthesia via the abdominal aorta and subjected to blood biochemistry tests.

The subject of another assay is blood coagulation. As to conditions: Kokai No. 63-8337 and Japanese Patent Applications Nos. 1-79956 and 1-183484; cited from earlier work.
Another assay relates to platelet aggregation. As to conditions: Kokai No. 63-8337 and Japanese Patent Applications Nos. 1-79956 and 1-183484; cited from earlier work.
For assay [2] the following is noted: Kokai No. 63-8337 and Japanese Patent Applications Nos. 1-79956 and 1-183484; cited from earlier work.
Where [3] appears, read: 400 mg/kg oral, *p < 0.05 vs saline.
Where [4] appears, read: 800 mg/kg oral, *p < 0.05 vs saline.

Regarding `N[C@@H](CCC(=O)N[C@@H](CSC(CC(=O)O)C(=O)O)C(=O)NCC(=O)O)C(=O)O` (stereo partly drawn) [DCE-GS, S-(α, β-Dicarboxyethyl)glutathione], in assay [1] (200 mg/kg oral), the “LDH (lactate dehydrogenase)” value is reported as 6029 ± 485 Wrobrewski units, the s-GOT turned out to be 1221 ± 179 IU/liter, the s-GPT was 499 ± 66 IU/liter and the “s-TG (serum triglyceride)” value amounted to 28.8 ± 5.0 mg/dL. For the same compound, in assay [1] (400 mg/kg oral), the “s-TG (serum triglyceride)” value is 36.1 ± 7.6 mg/dL. Moreover, in assay [1] (setting [3]), the “LDH (lactate dehydrogenase)” value came out at 4873 ± 973 Wrobrewski units, the s-GOT worked out at 677 ± 219 IU/liter and the s-GPT is 262 ± 89 IU/liter. Besides, in assay [1] (setting [4]), the “LDH (lactate dehydrogenase)” value was determined as 3722 ± 595 Wrobrewski units, the s-GOT turned out to be 438 ± 131 IU/liter, the s-GPT is 133 ± 39 IU/liter and the “s-TG (serum triglyceride)” value is 53.9 ± 10.4 mg/dL. For the same compound, the “effect on acetaminophen-induced changes in s-GOT, s-GPT, s-LDH and s-TG” value in assay [1] (200, 400 or 800 mg/kg oral) was “dose-dependently suppressed the increases in s-GOT, s-GPT and s-LDH as well as the decrease in s-TG”. The “blood coagulation inhibiting activity” value in the assay with blood coagulation is given as “blood coagulation inhibiting”. Besides, the “platelet aggregation inhibiting activity” value in the assay on platelet aggregation was “platelet aggregation inhibiting”. The “antiinflammatory and/or antiallergic activity” value in assay [2] is recorded as “antiinflammatory and/or antiallergic activity”.
